Some test systems named below: RXF 393 renal; SF-268 CNS; 786-0 renal; MDA-MB-231 breast; HOP-92 NSCLC; BT-549 breast; OVCAR-3 ovarian; SK-MEL-5 melanoma; OVCAR-5 ovarian; LOX IMVI melanoma.
Common to all, as to test: inhibition of tumour cell growth, NCI panel, 48 h

Among the data in PubChem BioAssay (NCI) are GI50 and TGI values, retold here.

Values joined by “and” are separate entries in the source; they are usually repeats but may differ in a detail not shown here. Equal entries are not always repeated.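 96-well plates; 48 h exposure; 5 concentrations. Endpoints by linear interpolation between flanking doses. Not reached: highest tested concentration assigned. At the GI50, growth is halved. The concentration for full growth arrest is given as TGI.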

`CS(=O)(=O)N1CCN(Cc2cc3nc(-c4cccc5[nH]ncc45)nc(N4CCOCC4)c3s2)CC1`: the GI50 with RXF 393 renal is 0.209 µM and 0.165 µM; in the assay on SF-268 CNS, 1.59 µM and 0.625 µM; with 786-0 renal, 0.281 µM; with MDA-MB-231 breast it was 2.62 µM and 0.504 µM; with HOP-92 NSCLC it was 0.0232 µM and 0.0547 µM; with BT-549 breast, 0.271 µM and 0.231 µM. Also, the GI50 in the assay on OVCAR-3 ovarian was 0.245 µM and 0.194 µM; in the assay on SK-MEL-5 melanoma, 1.11 µM and 0.537 µM; in the assay with OVCAR-5 ovarian, 0.357 µM and 0.234 µM; in the assay with LOX IMVI melanoma it was 0.456 µM and 0.32 µM. Moreover, the TGI was 1.54 µM and 1.03 µM in the assay with RXF 393 renal; greater than 100 µM in the assay with SF-268 CNS; 2.46 µM in the assay on 786-0 renal; greater than 100 µM with MDA-MB-231 breast; 0.197 µM and 0.508 µM with HOP-92 NSCLC; greater than 100 µM with BT-549 breast. The TGI is 3.82 µM and > 5.15 µM with OVCAR-3 ovarian; greater than 100 µM in the assay on SK-MEL-5 melanoma; greater than 100 µM in the assay with OVCAR-5 ovarian; greater than 100 µM with LOX IMVI melanoma.
For `NC(=O)c1nnn(Cc2cc(Cl)c(C(=O)c3ccc(Cl)cc3)c(Cl)c2)c1N`, the GI50 in the assay on RXF 393 renal, in the assay with SF-268 CNS, in the assay on 786-0 renal, in the assay with HOP-92 NSCLC, in the assay with OVCAR-3 ovarian and in the assay on SK-MEL-5 melanoma was greater than 9.09 µM in each case. Also, the GI50 in the assay with OVCAR-5 ovarian and in the assay on LOX IMVI melanoma was greater than 9.09 µM throughout. Besides, the TGI with RXF 393 renal was > 9.09 µM and 39.3 µM; with SF-268 CNS it was > 9.09 µM and 29 µM; in the assay with 786-0 renal, > 9.09 µM and 43 µM; in the assay on MDA-MB-231 breast it was greater than 52.8 µM; in the assay on HOP-92 NSCLC, > 9.09 µM and 48.8 µM; in the assay on BT-549 breast, greater than 52.4 µM. In addition, the TGI is > 9.09 µM and 25 µM with OVCAR-3 ovarian; > 9.09 µM and 32.7 µM in the assay on SK-MEL-5 melanoma; greater than 53.4 µM in the assay on OVCAR-5 ovarian; greater than 47.2 µM with LOX IMVI melanoma.
`CC(C)(C)C(=O)OCOP(=O)(OCOC(=O)C(C)(C)C)C1CCCN(OC(=O)c2ccccc2)C1=O` (stereo not drawn): the GI50 with RXF 393 renal was 0.545 µM; with SF-268 CNS it was 1.86 µM; with 786-0 renal, 0.61 µM; in the assay on MDA-MB-231 breast it was 0.716 µM; with HOP-92 NSCLC, 1.25 µM; with BT-549 breast it was 2.64 µM. For the same compound, the GI50 in the assay on OVCAR-3 ovarian was 1.24 µM; in the assay with SK-MEL-5 melanoma, 0.983 µM; in the assay on OVCAR-5 ovarian it was 4.1 µM; with LOX IMVI melanoma it was 2.53 µM. In addition, the TGI with RXF 393 renal came out at 4.8 µM; in the assay with SF-268 CNS, 61.7 µM; in the assay with 786-0 renal, 26.4 µM; in the assay with MDA-MB-231 breast, 14.2 µM; in the assay on HOP-92 NSCLC it was 35.8 µM; with BT-549 breast, 17.9 µM. Besides, the TGI with OVCAR-3 ovarian was 7.28 µM; with SK-MEL-5 melanoma, 3.28 µM; in the assay on OVCAR-5 ovarian, greater than 100 µM; in the assay with LOX IMVI melanoma, 20.9 µM.
Take `Cc1cc(Cl)ccc1NC(=O)/C(Cl)=C(/Cl)C(=O)O`: the TGI was 36.3 µM in the assay with RXF 393 renal; greater than 100 µM with SF-268 CNS; 51.7 µM in the assay with 786-0 renal; 47.8 µM with MDA-MB-231 breast; 54.5 µM in the assay with HOP-92 NSCLC; 41.7 µM with BT-549 breast. Further, the TGI with OVCAR-3 ovarian was 36.8 µM; in the assay on SK-MEL-5 melanoma, greater than 100 µM; in the assay with OVCAR-5 ovarian it was 36.2 µM; in the assay on LOX IMVI melanoma, 43 µM.
Take `CC(C)c1ccc2c(N=Nc3ccc(S(N)(=O)=O)cc3)c(O)[nH]c2c1`: the GI50 in the assay on RXF 393 renal was 4.41 µM; with SF-268 CNS, 7.52 µM; in the assay on 786-0 renal, 12.6 µM; in the assay with MDA-MB-231 breast, 9.17 µM; in the assay on HOP-92 NSCLC it was greater than 15.9 µM; in the assay on BT-549 breast, 8.76 µM. The GI50 in the assay with OVCAR-3 ovarian was 6.21 µM; in the assay on SK-MEL-5 melanoma it was 9.86 µM; in the assay with OVCAR-5 ovarian, greater than 25 µM; with LOX IMVI melanoma, 9.01 µM. Moreover, the TGI is greater than 16 µM in the assay with RXF 393 renal; greater than 20.2 µM in the assay on SF-268 CNS; greater than 25 µM in the assay with 786-0 renal; greater than 25 µM in the assay on MDA-MB-231 breast; greater than 25 µM in the assay on HOP-92 NSCLC; greater than 16.4 µM in the assay on BT-549 breast. Further, the TGI with OVCAR-3 ovarian was 18.6 µM; in the assay on SK-MEL-5 melanoma, greater than 25 µM; in the assay with OVCAR-5 ovarian it was greater than 25 µM; in the assay on LOX IMVI melanoma it was greater than 25 µM.
On to `CCOCCc1c(O)nc(SC)[nH]c1=O`, for which the GI50 in the assay with RXF 393 renal, in the assay with SF-268 CNS, with 786-0 renal, in the assay on MDA-MB-231 breast, with HOP-92 NSCLC and with BT-549 breast was greater than 100 µM throughout. Moreover, the GI50 with OVCAR-3 ovarian, in the assay with SK-MEL-5 melanoma, in the assay on OVCAR-5 ovarian and in the assay with LOX IMVI melanoma was greater than 100 µM in each case. Moreover, the TGI in the assay on RXF 393 renal, with SF-268 CNS, with 786-0 renal, with MDA-MB-231 breast, with HOP-92 NSCLC and in the assay on BT-549 breast was greater than 100 µM throughout. In addition, the TGI in the assay with OVCAR-3 ovarian, in the assay with SK-MEL-5 melanoma, in the assay on OVCAR-5 ovarian and with LOX IMVI melanoma was greater than 100 µM throughout.
Regarding `CC1(C)Cc2cccc(OCC(O)CN3CCN(c4ccc(F)cc4)CC3)c2O1` (stereo not drawn), the GI50 in the assay on RXF 393 renal is 8.33 µM; with SF-268 CNS it was 18 µM; in the assay with 786-0 renal it was 5.66 µM; with MDA-MB-231 breast, 8.58 µM; in the assay on HOP-92 NSCLC it was 8.15 µM; in the assay with BT-549 breast, 17.3 µM. In addition, the GI50 is 22.9 µM in the assay on OVCAR-3 ovarian, 6.99 µM in the assay with SK-MEL-5 melanoma, 22.1 µM with OVCAR-5 ovarian and 23.8 µM with LOX IMVI melanoma. In addition, the TGI in the assay with RXF 393 renal was 22.6 µM; in the assay on SF-268 CNS, greater than 50 µM; in the assay with 786-0 renal, 15.7 µM; with MDA-MB-231 breast, 36 µM; in the assay with HOP-92 NSCLC, 31.4 µM; with BT-549 breast it was 39.8 µM. The TGI in the assay on OVCAR-3 ovarian was greater than 50 µM; with SK-MEL-5 melanoma, 13.9 µM; in the assay with OVCAR-5 ovarian, greater than 50 µM; with LOX IMVI melanoma it was greater than 50 µM.
With `O=C(/C=C/C=C/c1ccccc1)c1ccc(Nc2nc(Nc3ccccc3)nc(Nc3ccccc3)n2)cc1`, the GI50 is 1.62 µM in the assay on RXF 393 renal; 97 µM with SF-268 CNS; 45.8 µM in the assay on 786-0 renal; 34.7 µM in the assay with MDA-MB-231 breast; 0.241 µM in the assay with HOP-92 NSCLC; greater than 100 µM with BT-549 breast. For the same compound, the GI50 in the assay on OVCAR-3 ovarian is 47.8 µM; in the assay with SK-MEL-5 melanoma, 13 µM; in the assay with OVCAR-5 ovarian it was greater than 100 µM; in the assay on LOX IMVI melanoma, greater than 100 µM. Further, the TGI in the assay with RXF 393 renal was 47.5 µM; in the assay on SF-268 CNS it was greater than 100 µM; in the assay with 786-0 renal, greater than 100 µM; with MDA-MB-231 breast it was greater than 100 µM; in the assay with HOP-92 NSCLC, 17.7 µM; in the assay on BT-549 breast, greater than 100 µM. Further, the TGI in the assay on OVCAR-3 ovarian, in the assay with SK-MEL-5 melanoma, in the assay on OVCAR-5 ovarian and with LOX IMVI melanoma was greater than 100 µM in each case.
